These results are taken from the supplement of paper PMC8967900.
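Note: ALL cell lines in 384-well plates, five doses spanning 10,000-fold, each plate scaled between vehicle and 100 µmol/L benzalkonium chloride controls, sDSS an adapted area-under-curve metric.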

The first experiment has as its system REH. Kind of experiment: selective drug sensitivity score (sDSS, relative to normal bone marrow) (sDSS (score)); higher = more potent and effective on the cell line relative to normal bone marrow cells. The settings on record: 72 h.
Turning to `Cc1ccc(C(=O)Nc2cccc(C(F)(F)F)c2)cc1Nc1nc(-c2cccnc2)nc2c1cnn2C` [NVP-BHG712] (top concentration 10000 nM), the “selective drug sensitivity score” value is 6.18.
Turning to `COC[C@H](NC(=O)c1cnc(C)s1)C(=O)N[C@@H](COC)C(=O)N[C@@H](Cc1ccccc1)C(=O)[C@@]1(C)CO1` [Oprozomib] (top concentration 2500 nM), the “selective drug sensitivity score” value is -0.4.
The same measure, in the same setting: then `Cc1ccc(C(=O)N(CCCN)[C@@H](c2oc3cc(Cl)ccc3c(=O)c2Cc2ccccc2)C(C)C)cc1` (top concentration 100 nM), with 4.26; and `CCn1c(C(=O)N(C2CC2)C2CC2)cc2c3c(ncn3C)c(Nc3cc(C)n(C)n3)nc21` (top concentration 10000 nM), with -4.36.
Same read-out and setting: under `Nc1nc(Cl)nc2c1ncn2[C@@H]1O[C@H](CO)[C@@H](O)[C@@H]1F` [Clofarabine] (top concentration 10000 nM) stands 2.3; under `Cc1ccc(C(=O)Nc2ccc(Oc3cc4cnn(C)c4cc3-c3cn[nH]c3)c(F)c2)c(=O)n1-c1ccc(F)cc1` [Merestinib] (top concentration 1000 nM), -0.62; under `Nc1ncn([C@@H]2O[C@H](CO)[C@@H](O)[C@H]2O)c(=O)n1` [Azacitidine] (top concentration 10000 nM), 9.44.
Turning to `CC(C)c1cc(-c2n[nH]c(=O)n2-c2ccc3c(ccn3C)c2)c(O)cc1O` [Ganetespib] (top concentration 1000 nM), the “selective drug sensitivity score” value came out at 0.54.
On the same count and under the same terms, under `C[C@]1(c2nc3c(C(N)=O)cccc3[nH]2)CCCN1` [Veliparib] (top concentration 10000 nM) stands -4.18.

The subject of another experiment is SEM cells. Described as above. The settings on record: 72 h.
Regarding `C/C=C1\NC(=O)[C@H]2CSSCC/C=C/[C@H](CC(=O)N[C@H](C(C)C)C(=O)N2)OC(=O)[C@H](C(C)C)NC1=O` [Romidepsin] (top concentration 1000 nM), the “selective drug sensitivity score” value was 3.96.
The same measure, in the same setting: then `CN(C)CCOc1ccc(/C(=C(/CCCl)c2ccccc2)c2ccccc2)cc1` [Toremifene] (top concentration 10000 nM), with 0.48; and `CCCCc1nc2cc(/C=C/C(=O)NO)ccc2n1CCN(CC)CC` [Pracinostat] (top concentration 10000 nM), with 5.28; and `Cn1ncc(Cl)c1-c1cc(C(=O)N[C@H](CN)Cc2cccc(F)c2)sc1Cl` [Afuresertib] (top concentration 1000 nM), with 0.36.
Consider `Cc1cc(-c2nc(-c3ccc(OC(F)(F)F)cc3)no2)nn1Cc1ccnc(N2CCN(C3CC3)CC2)c1` [BAY_87-2243] (top concentration 1000 nM), for which the “selective drug sensitivity score” value was 6.84.
Consider `CNc1nc(-c2ccc3c(N)n[nH]c3c2)cc(N2C[C@@H](C(=O)NC3CCCCC3)CC[C@H]2C)n1` (top concentration 10000 nM), for which the “selective drug sensitivity score” value stood at 3.26.
Consider `CN1CC[C@H](c2c(O)cc(O)c3c(=O)cc(-c4ccccc4Cl)oc23)[C@H](O)C1` [Alvocidib] (top concentration 10000 nM), for which the “selective drug sensitivity score” value was -3.5.
With `Cc1cc2c(C(C)C)c(O)c(O)c(C=O)c2c(O)c1-c1c(C)cc2c(C(C)C)c(O)c(O)c(C=O)c2c1O` [AT-101] (top concentration 100000 nM), the “selective drug sensitivity score” value came out at 3.78.
`Cc1ccc(C(=O)Nc2cccc(C(F)(F)F)c2)cc1Nc1nc(-c2cccnc2)nc2c1cnn2C` [NVP-BHG712] (top concentration 10000 nM): the “selective drug sensitivity score” value was determined as 2.48.
Same read-out and setting: then `COC[C@H](NC(=O)c1cnc(C)s1)C(=O)N[C@@H](COC)C(=O)N[C@@H](Cc1ccccc1)C(=O)[C@@]1(C)CO1` [Oprozomib] (top concentration 2500 nM), with 11.3; and `Cc1ccc(C(=O)N(CCCN)[C@@H](c2oc3cc(Cl)ccc3c(=O)c2Cc2ccccc2)C(C)C)cc1` (top concentration 100 nM), with 5.66.
`CCn1c(C(=O)N(C2CC2)C2CC2)cc2c3c(ncn3C)c(Nc3cc(C)n(C)n3)nc21` (top concentration 10000 nM): the “selective drug sensitivity score” value was 0.94.
The same measure, in the same setting: under `Nc1nc(Cl)nc2c1ncn2[C@@H]1O[C@H](CO)[C@@H](O)[C@@H]1F` [Clofarabine] (top concentration 10000 nM) stands 7; under `Cc1ccc(C(=O)Nc2ccc(Oc3cc4cnn(C)c4cc3-c3cn[nH]c3)c(F)c2)c(=O)n1-c1ccc(F)cc1` [Merestinib] (top concentration 1000 nM), 19.8.
As to `Nc1ncn([C@@H]2O[C@H](CO)[C@@H](O)[C@H]2O)c(=O)n1` [Azacitidine] (top concentration 10000 nM), the “selective drug sensitivity score” value came to 8.74.
On the same count and under the same terms, then `CC(C)c1cc(-c2n[nH]c(=O)n2-c2ccc3c(ccn3C)c2)c(O)cc1O` [Ganetespib] (top concentration 1000 nM), with 1.24; and `C[C@]1(c2nc3c(C(N)=O)cccc3[nH]2)CCCN1` [Veliparib] (top concentration 10000 nM), with -4.18.

A further experiment relates to TANOUE. The description is as above. To be noted: 72 h.
On to `C/C=C1\NC(=O)[C@H]2CSSCC/C=C/[C@H](CC(=O)N[C@H](C(C)C)C(=O)N2)OC(=O)[C@H](C(C)C)NC1=O` [Romidepsin] (top concentration 1000 nM), for which the “selective drug sensitivity score” value is -11.
Same read-out and setting: then `CN(C)CCOc1ccc(/C(=C(/CCCl)c2ccccc2)c2ccccc2)cc1` [Toremifene] (top concentration 10000 nM), with -2.62; and `CCCCc1nc2cc(/C=C/C(=O)NO)ccc2n1CCN(CC)CC` [Pracinostat] (top concentration 10000 nM), with -7.72; and `Cn1ncc(Cl)c1-c1cc(C(=O)N[C@H](CN)Cc2cccc(F)c2)sc1Cl` [Afuresertib] (top concentration 1000 nM), with -1.94.
Same read-out and setting: under `Cc1cc(-c2nc(-c3ccc(OC(F)(F)F)cc3)no2)nn1Cc1ccnc(N2CCN(C3CC3)CC2)c1` [BAY_87-2243] (top concentration 1000 nM) stands 25.2; under `CNc1nc(-c2ccc3c(N)n[nH]c3c2)cc(N2C[C@@H](C(=O)NC3CCCCC3)CC[C@H]2C)n1` (top concentration 10000 nM), 0.16.
The same measure, in the same setting: then `CN1CC[C@H](c2c(O)cc(O)c3c(=O)cc(-c4ccccc4Cl)oc23)[C@H](O)C1` [Alvocidib] (top concentration 10000 nM), with -11; and `Cc1cc2c(C(C)C)c(O)c(O)c(C=O)c2c(O)c1-c1c(C)cc2c(C(C)C)c(O)c(O)c(C=O)c2c1O` [AT-101] (top concentration 100000 nM), with 0.98; and `Cc1ccc(C(=O)Nc2cccc(C(F)(F)F)c2)cc1Nc1nc(-c2cccnc2)nc2c1cnn2C` [NVP-BHG712] (top concentration 10000 nM), with -2.32.
Consider `COC[C@H](NC(=O)c1cnc(C)s1)C(=O)N[C@@H](COC)C(=O)N[C@@H](Cc1ccccc1)C(=O)[C@@]1(C)CO1` [Oprozomib] (top concentration 2500 nM), for which the “selective drug sensitivity score” value was -8.7.
Same read-out and setting: under `Cc1ccc(C(=O)N(CCCN)[C@@H](c2oc3cc(Cl)ccc3c(=O)c2Cc2ccccc2)C(C)C)cc1` (top concentration 100 nM) stands -3.64; under `CCn1c(C(=O)N(C2CC2)C2CC2)cc2c3c(ncn3C)c(Nc3cc(C)n(C)n3)nc21` (top concentration 10000 nM), -4.36.
On the same count and under the same terms, then `Nc1nc(Cl)nc2c1ncn2[C@@H]1O[C@H](CO)[C@@H](O)[C@@H]1F` [Clofarabine] (top concentration 10000 nM), with -18.6; and `Cc1ccc(C(=O)Nc2ccc(Oc3cc4cnn(C)c4cc3-c3cn[nH]c3)c(F)c2)c(=O)n1-c1ccc(F)cc1` [Merestinib] (top concentration 1000 nM), with -0.62; and `Nc1ncn([C@@H]2O[C@H](CO)[C@@H](O)[C@H]2O)c(=O)n1` [Azacitidine] (top concentration 10000 nM), with -0.86.
Still for that read-out and setting: then `CC(C)c1cc(-c2n[nH]c(=O)n2-c2ccc3c(ccn3C)c2)c(O)cc1O` [Ganetespib] (top concentration 1000 nM), with -8.36; and `C[C@]1(c2nc3c(C(N)=O)cccc3[nH]2)CCCN1` [Veliparib] (top concentration 10000 nM), with -4.18.
